Results reported in patent US20210147466A1, “IMPROVED PROCESSES FOR THE PREPARATION OF GUADECITABINE AND INTERMEDIATES THEREOF” (TEVA CZECH INDUSTRIES s.r.o., priority 2017, published 2021).
Where two headings read alike, the source gives them in different places.

Legend:
[1] = undergoes hydrolytic degradation; cited from earlier work
[2] = Stability of guadecitabine sodium form A in methanol water (9/1 v/v) at 40° C. (HPLC contents); type: physicochemical
Description: Analytical HPLC Method Used for Measuring Guadecitabine Purity Column: 150×3.0 mm Luna Omega Polar C18, 1.6 μm at 40° C. Solvent A: 0.15 mL/l formic acid in water, pH adjusted with ammonia to 3.6. Solvent B: acetonitrile Gradient program: [table] [table] Example 23: Comparison of Guadecitabine Sodium Form A Stability in Water at 25° C. and Methanol Water (9/1 v/v) at 40° C.

[3] = type: physicochemical
Description: Analytical HPLC Method Used for Measuring Guadecitabine Purity
Column: 150×3.0 mm Luna Omega Polar C18, 1.6 μm at 40° C.
Solvent A: 0.15 mL/l formic acid in water, pH adjusted with ammonia to 3.6. Solvent B: acetonitrile Gradient program: […]
Example 23: Comparison of Guadecitabine Sodium Form A Stability in Water at 25° C. and Methanol Water (9/1 v/v) at 40° C.
In water stability of guadecitabine sodium form A was measured as follows.
Instrument method: autosampler temp. was set to 25° C. 10 mg of guadecitabine sodium form A was weighted in 2-mL vial in glovebox and 1 mL of water was added to have concentration exactly 10 mg/mL. Sample was injected freshly after preparation (0 min), 20 min after preparation (20 min) and afterwards every 40 min (duration of single analysis run).

[4] = Stability in aqueous media (statements in the description); type: physicochemical; settings: aqueous phase of chromatography on C18 column

For Nc1ncn([C@H]2C[C@H](O)[C@@H](CO)O2)c(=O)n1 [Decitabine], which “stability in aqueous media” value [1] is on record?
Its value is “unstable”.

Which results are given for Nc1ncn([C@H]2C[C@H](OP(=O)([O-])OC[C@H]3O[C@@H](n4cnc5c(=O)[nH]c(N)nc54)C[C@@H]3O)[C@@H](CO)O2)c(=O)n1.[Na+] [guadecitabine sodium]?
HPLC contents (%) Degradant 2a [2]: <0.05%; HPLC contents (%) Degradant 2b [2]: <0.05%; HPLC contents (%) Degradant 2c [2]: 0.14%; HPLC contents (%) Degradant 2d [2]: 0.10%; HPLC contents (%) guadecitabine sodium ([2]; Suspension in methanol/water (9/1), 40° C., injection time point 240 min): 99.76%; HPLC contents (%) Degradant 2a [3]: <0.05%; HPLC contents (%) Degradant 2b [3]: <0.05%; HPLC contents (%) Degradant 2c [3]: 0.14%; HPLC contents (%) Degradant 2d [3]: 0.05%; HPLC contents (%) guadecitabine sodium ([3]; Solution in DMSO, no time point (reference)): 99.82%; HPLC contents (%) guadecitabine sodium ([3]; Solution in water, 10 mg/mL, 25° C., injection time point 0 min): 99.80%; HPLC contents (%) guadecitabine sodium ([3]; Solution in water, 10 mg/mL, 25° C., injection time point 20 min): 99.63%; HPLC contents (%) guadecitabine sodium ([3]; Solution in water, 10 mg/mL, 25° C., injection time point 40 min): 99.39%; HPLC contents (%) guadecitabine sodium ([3]; Solution in water, 10 mg/mL, 25° C., injection time point 80 min): 99.02%; HPLC contents (%) guadecitabine sodium ([3]; Solution in water, 10 mg/mL, 25° C., injection time point 120 min): 98.58%; HPLC contents (%) guadecitabine sodium ([3]; Solution in water, 10 mg/mL, 25° C., injection time point 160 min): 98.16%; HPLC contents (%) guadecitabine sodium ([3]; Solution in water, 10 mg/mL, 25° C., injection time point 200 min): 97.56%; HPLC contents (%) guadecitabine sodium ([3]; Solution in water, 10 mg/mL, 25° C., injection time point 240 min): 97.11%; HPLC contents (%) guadecitabine sodium ([3]; Solution in water, 10 mg/mL, 25° C., injection time point 280 min): 96.29%

Which results are given for Nc1ncn([C@H]2C[C@H](OP(=O)(O)OC[C@H]3O[C@@H](n4cnc5c(=O)[nH]c(N)nc54)C[C@@H]3O)[C@@H](CO)O2)c(=O)n1 [guadecitabine, [(2R,3S,5R)-5-(2-amino-6-oxo-3H-purin-9-yl)-3-hydroxyoxolan-2-yl]methyl [(2R,3S,5R)-5-(4-amino-2-oxo-1,3,5-triazin-1-yl)-2-(hydroxymethyl)oxolan-3-yl] hydrogen phosphate]?
stability in aqueous phase [4]: not stable; guadecitabine degradation ([2]; in methanol): significantly suppressed
